Source: patent US9238020B2, “Compositions comprising enzyme-cleavable phenol-modified tapentadol prodrug” (priority 2010, dated 2016)

Columns and labels:
[1] = biological target: T1, human μ-opioid receptor (Homo sapiens, UniProt P35372); test: In vitro human μ-opioid receptor binding assay ([3H]DAMGO, recombinant HEK-293 cells); set-up: expressed in transfected cells; host or cells: HEK-293; conditions: relative to tapentadol
Protocol: The general procedure follows the protocol described by J.-B. Wang, et al, 1994, FEBS Lett. 338, 217-222. More specifically, the assays included tapentadol or Compound TP-1 (which can be prepared as described in the examples herein) as well as recombinant HEK-293 cells expressing the human μ-opioid receptor on their cell surfaces, reference compound [d-Ala^2,N-Me-Phe^4,Gly^5−ol]-enkephalin (DAMGO), radioligand [^3H]DAMGO (0.5 nM) and non-specific ligand naloxone (10 uM). The reaction mixtures were incubated at 22° C. for 2 hr. The samples were then submitted to scintillation counting.
In these assays, the specific binding of a test compound to the receptor is defined as the difference between the total binding and the non-specific binding determined in the presence of an excess of unlabelled ligand. Results are expressed as a percent of control of specific binding and as a percent inhibition of control specific binding obtained in the presence of test compounds. The IC50 values (concentration of competing ligand required for 50% inhibition of [^3H]DAMGO binding), and Hill coefficients (nH) were determined by non-linear regression analysis of competition curves using Hill equation curve fitting.

[2] = biological target: T1, human μ-opioid receptor; test: In vitro human μ-opioid receptor agonist cellular functional assay (cAMP, CHO cells); format: cell-based; set-up: expressed in transfected cells; conditions: CHO cells expressing human μ-opioid receptor, 37° C., 10 min
Protocol: The general procedure follows the protocol described by J.-B. Wang, et al, ibid. More specifically, the assay included as appropriate, Compound TP-1 or tapentadol and recombinant Chinese hamster ovary (CHO) cells expressing the human μ-opioid receptor on their cell surfaces. The control reaction included 1 μM DAMGO. The reaction mixtures were incubated at 37° C. for 10 min, and the reaction product was cyclic AMP (cAMP). The samples were submitted to homogeneous time resolved fluorescence (HTRF®). EC50 values (concentration producing a half-maximal specific response) were determined by non-linear regression fit using Hill plot software.

[3] = Pharmacokinetics of tapentadol release following PO administration of prodrugs or tapentadol to rats; format: in vivo, rat
Protocol: Saline solutions of Compound TP-1 (which can be prepared as described in the examples herein) were dosed as indicated in Table 1 via oral gavage into 4 jugular vein-cannulated male Sprague Dawley rats that had been fasted for 16-18 hr prior to oral dosing. At specified time points, blood samples were drawn, harvested for plasma via centrifugation at 5,400 rpm at 4° C. for 5 min, and 100 microliters (μl) plasma transferred from each sample into a fresh tube containing 2 μl of 50% formic acid. The tubes were vortexed for 5-10 seconds, immediately placed in dry ice and then stored in a −80° C. freezer until analysis by HPLC/MS.
Saline solutions of Compounds TP-1, TP-3, TP-4, (which can be prepared as described in the examples herein) or tapentadol were dosed in approximately equimole amounts as indicated in Table 6. Dose administration, sampling and analysis procedures were as described in Example 11.
Dosing, sampling and analysis procedures were as described in Example 11.

[4] = tested on: norepinephrine uptake into rat hypothalamus synaptosomes; test: In vitro functional norepinephrine uptake assay; format: biochemical; conditions: rat hypothalamus synaptosomes
Protocol: The general procedure follows the protocol described by S. Perovic and W. E. G. Muller, 1995, Arzneim-Forsch. Drug Res. 45, 1145-1148. More specifically, the assays included each of the compounds indicated in Table 13 and rat hypothalamus synaptosomes incubated with 0.2 μCi/mL [^3H] norepinephrine. For a control reaction, protriptyline was used. The reaction mixtures were incubated at 37° C. for 20 min, and the reaction product of [^3H] norepinephrine incorporation into the synaptosomes was measured by scintillation counting. IC50 values (concentration causing a half-maximal inhibition of control specific activity) were determined by non-linear regression fit using Hill plot software.

[5] = Pharmacokinetics of prodrug and tapentadol following IV administration to rats; conditions: male, Sprague Dawley, in vivo; prodrug in rat plasma; TP-1 IV 2 mg/kg (3 μmol/kg); read-out: TP-1 Cmax ± sd
Protocol: Compound TP-1 (which can be prepared as described in the examples herein) was dissolved in saline and injected into the tail vein of 4 jugular vein-cannulated male Sprague Dawley rats at a dose of 2 mg/kg. At specified time points, blood samples were drawn, harvested for plasma via centrifugation at 5,400 rpm at 4° C. for 5 min, and 100 μl plasma transferred from each sample into a fresh tube containing 2 μl of 50% formic acid. The tubes were vortexed for 5-10 seconds, immediately placed in dry ice and then stored in a −80° C. freezer until analysis by high performance liquid chromatography/mass spectrometry (HPLC/MS).
Table 2 and FIG. 4 provide Compound TP-1 and tapentadol exposure results for rats administered Compound TP-1 intravenously. Results in Table 2 are reported as maximum plasma concentration (Cmax) of Compound TP-1 and tapentadol (TP), respectively, (average±standard deviation).
Compound TP-3 or Compound TP-4 (which can be prepared as described in the examples herein), or tapentadol were dissolved in saline and injected into the tail vein of four jugular vein-cannulated male Sprague Dawley rats at a dose of 2 mg/kg. Sampling and analysis procedures were as described in Example 12.

T1 sequence (P35372 whole entry): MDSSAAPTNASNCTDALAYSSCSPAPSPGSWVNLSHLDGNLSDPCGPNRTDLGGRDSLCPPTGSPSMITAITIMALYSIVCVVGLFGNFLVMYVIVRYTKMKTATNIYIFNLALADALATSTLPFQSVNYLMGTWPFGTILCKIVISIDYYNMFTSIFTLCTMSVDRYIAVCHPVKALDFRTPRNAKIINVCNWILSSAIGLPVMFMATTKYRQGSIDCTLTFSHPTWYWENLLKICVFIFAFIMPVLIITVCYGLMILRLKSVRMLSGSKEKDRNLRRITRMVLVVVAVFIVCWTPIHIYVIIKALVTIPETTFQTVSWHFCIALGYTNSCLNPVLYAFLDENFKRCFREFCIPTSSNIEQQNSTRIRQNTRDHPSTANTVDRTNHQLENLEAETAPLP

In the case of CC[C@@H](c1cccc(OC(=O)N(C)CCNC(=O)[C@H](CCCNC(=N)N)NC(=O)CC(=O)O)c1)[C@@H](C)CN(C)C [Compound TP-1, N—[(S)-1-(2-{[3-((1R,2R)-3-dimethylamino-1-ethyl-2-methyl-propyl)-phenoxycarbonyl]-methyl-amino}-ethylcarbamoyl)-4-guanidino-butyl]-malonamic acid], the “affinity for the μ-opioid receptor, fold less than that of tapentadol” value [1] is reported as “at least 200 fold”, the “agonist response in the μ-opioid receptor functional assay” value [2] is reported as “weak response was seen at 100 μM” and the “plasma concentrations of tapentadol versus prodrug dose” value ([3]; 5 to 50 mg/kg) is reported as “increase proportionally”. For the same compound, the “tapentadol plasma concentration profile compared to administration of tapentadol” value ([3]; approximately equimole amounts) was “suppressed Cmax and delayed Tmax”, the “activity as a norepinephrine reuptake inhibitor” value [4] was “no detectable activity” and the Cmax [5] was 965 ± 160 ng/mL.
